{"source": "patent US20240408114A1", "about": "“METHODS FOR PREVENTING AND TREATING ACUTE KIDNEY INJURY” (The Johns Hopkins University, priority 2021, published 2024)", "format_in_all_cases": "in vivo, mouse", "key": {"splenic T cells": {"test_system": "splenic T cells", "assay": "Splenic T cell phenotypes in post-IRI mice", "details": "vs vehicle", "description": "T cell proliferation assessed with Ki67 expression was reduced in CD4^+ and CD8^+ T cells from JHU083 treated post-ischemic kidneys (Ki67^+, CD4^+ T cells 58.7±2.9 vs 50.6±2.1%, P=0.035; CD8^+ T cells, 61.2±4.2% vs 48.4±4.1%, P=0.043) (FIG. 15). […] We also studied immunophenotypes of splenic T cells from post-IRI mice.\nKMNCs were isolated according to our previously described Percoll density gradient protocol. Ascon et al., 2006. Briefly, decapsulated kidneys were immersed and incubated in collagenase D (2 mg/mL; Sigma-Aldrich) solution for 30 min at 37° C. Samples were strained through 70 µm cell strainer (BD Bioscience, Franklin Lakes, NJ), washed, and resuspended in 40% Percoll (GE Healthcare, Chicago, IL) followed by gentle overlaying onto 80% Percoll. After centrifugation at 1,500 g for 30 min in brake off mode at room temperature, KMNCs were collected from interface between 40% and 80% Percoll. […] Cells were counted on hemocytometer using trypan blue exclusion under a microscope.\nCells were washed once with phosphate buffered saline (PBS) and stained with viability dye Zombie NIR Fixable Viability (BioLegend, San Diego, CA) for 15 min at room temperature. […] Samples were analyzed by 4-laser Aurora spectral flow cytometer (Cytek, Fremont, CA). […]"}, "kidney T cells [1]": {"test_system": "kidney T cells", "assay": "T cells from post-ischemic kidneys, spectral flow cytometry", "description": "Mice were treated with 1.83 mg/kg of JHU083 or vehicle every other day via intraperitoneal injection and underwent bilateral IRI surgery on day 7 after the initial injection. […] Hollinger et al., 2020. Mice were followed up until 72 h after IRI, and T cells isolated from post-ischemic kidneys were studied (FIG. 14A).\n(§1) KMNCs were isolated according to our previously described Percoll density gradient protocol. Ascon et al., 2006. Briefly, decapsulated kidneys were immersed and incubated in collagenase D (2 mg/mL; Sigma-Aldrich) solution for 30 min at 37° C. Samples were strained through 70 µm cell strainer (BD Bioscience, Franklin Lakes, NJ), washed, and resuspended in 40% Percoll (GE Healthcare, Chicago, IL) followed by gentle overlaying onto 80% Percoll. After centrifugation at 1,500 g for 30 min in brake off mode at room temperature, KMNCs were collected from interface between 40% and 80% Percoll. Spleens were strained through 40 µm cell strainer (BD Bioscience) and incubated with ammonium-chloride-potassium lysis buffer (Quality Biological, Gaithersburg, MD) for 3 min. Collected cells were washed and resuspended with Roswell Park Memorial Institute (RPMI) 1640 media (Thermo Fisher Scientific, Waltham, MA) containing 5% fetal bovine serum (FBS, Thermo Fisher Scientific). Cells were counted on hemocytometer using trypan blue exclusion under a microscope.\n(§2) Cells were washed once with phosphate buffered saline (PBS) and stained with viability dye Zombie NIR Fixable Viability (BioLegend, San Diego, CA) for 15 min at room temperature. After washing with Cell Staining Buffer (BioLegend), cells were preincubated with anti-CD16/CD32 Fc receptor blocking antibody (S17011E, BioLegend) for 15 min to prevent nonspecific antibody binding. Subsequently, surface staining was performed in 50 μL of BD horizon™ Brilliant Stain buffer and surface staining antibody cocktail for 30 min at 4° C.: Pacific blue anti-CD44 (IM7, BioLegend), BV510 anti-CD8 (53-6.7, BioLegend), BV570 anti-CD45 (30-F11, BioLegend), BV605 anti-CD69 (H1.2F3, BioLegend), BV650 anti-NK1.1 (PK136, BioLegend), BV711 anti-PD1 (29F.1A12, BioLegend), BV785 anti-TCRβ (H57-597, BioLegend), PE-Cy5.5 anti-CD25 (PC61.5, Thermo Fisher Scientific), APC-R700 anti-CD62L (MEL-14, BD Bioscience), and APC-Fire810 anti-CD4 (GK1.5, BioLegend). Cells were fixed and permeabilized with Foxp3/Transcription Factor Staining kit (Thermo Fisher Scientific) for 30 min at room temperature and washed with permeabilization/wash buffer (Thermo Fisher Scientific). Intracellular staining was conducted in 50 μL of permeabilization/wash buffer with intracellular staining antibody cocktail for 45 min at room temperature: BV421 anti-Ki67 (16A8, BioLegend), Alexa Fluor 488 anti-CPT1a (8F6AE9, Abcam, Cambridge, UK), Alexa Fluor 532 anti-VDAC1 (20B12AF2, Abcam), PerCP-efluor 710 anti-FoxP3 (FJK-16S, Thermo Fisher Scientific), PE anti-GLUT1 (EPR3915, Abcam), Alexa Fluor 594 anti-pS6 (D68F8, Cell Signaling, Danvers, MA), PE-Cy5 anti-HKII (EPR20839, Abcam), PE-Cy7 anti-H3K27me3 (C36B11, Cell Signaling), and Alexa Fluor 647 anti-Tomm20 (EPR15581-54, Abcam). After staining, cells were washed with permeabilization/wash buffer then resuspended in Cell Staining Buffer. Samples were analyzed by 4-laser Aurora spectral flow cytometer (Cytek, Fremont, CA).\n(§3) Glutamine antagonist, JHU083 was synthesized as previously described, Rais et al., 2016, and dissolved in 50 mM […] 4-(2-hydroxyethyl)-1-piperazineethanesulfonic acid (HEPES) buffered 0.9% saline. Aliquot stocks were stored at −80° C. and thawed right before injection. Before the IRI surgery or cisplatin injection, mice were administered 1.83 mg/kg JHU083 (equivalent to 1 mg/kg DON) or vehicle (50 mM HEPES buffered 0.9% saline) every other day via intraperitoneal injection. Following 4 consecutive dosages, mice underwent IRI surgery or cisplatin injection. The last additional dose was given at 24 h after IRI or cisplatin injection. […]"}, "kidney T cells [2]": {"test_system": "kidney T cells", "assay": "T cells from post-cisplatin AKI kidneys, spectral flow cytometry", "description": "Given the significant protective outcomes in ischemic AKI, we subsequently tested the effect of glutamine blockade on a nephrotoxic AKI model, which is another common etiology of clinical AKI. After pretreatment with JHU083 or vehicle, 25 mg/kg of cisplatin was injected intraperitoneally. T cells were isolated and studied after 72 h after cisplatin treatment (FIG. 16A).\nas §1, §2\nas §3, with “injection.” for “injection. The last additional dose was given at 24 h after IRI or cisplatin injection.”"}, "[3]": {"details": "post-ischemic kidneys, vs vehicle"}, "[4]": {"details": "post-cisplatin AKI kidneys, vehicle 21.4±2.7, P=0.001"}}, "data": [{"smiles": "CCOC(=O)[C@H](CCC(=O)C=[N+]=[N-])NC(=O)[C@@H](N)CC(C)C", "note": "[JHU083]", "values": [{"measurement": "immunophenotypes of splenic CD4+ and CD8+ T cells", "setting": "splenic T cells", "value": "increased naïve phenotypes with low CD44 and high CD62L expression"}, {"measurement": "expression of CD69, CD44, and Ki67 on kidney CD4+ and CD8+ T cells", "setting": "kidney T cells [1]; Example 1, FIG. 8, after ischemic AKI, vs vehicle control group", "value": "reduced expression"}, {"measurement": "CD69+ among kidney CD8+ T cells", "setting": "kidney T cells [1]; post-ischemic kidneys, vehicle 24.9±2.3, P=0.019", "value": "17.8±1.4", "unit": "%"}, {"measurement": "CD62L+ among kidney CD4+ T cells", "setting": "kidney T cells [1]; post-ischemic kidneys, vehicle 29.0±1.6, P<0.001", "value": "42.8±2.2"}, {"measurement": "CD62L+ among kidney CD8+ T cells", "setting": "kidney T cells [1]; post-ischemic kidneys, vehicle 44.9±3.2, P<0.001", "value": "63.6±2.8"}, {"measurement": "Ki67+ among kidney CD4+ T cells", "setting": "kidney T cells [1]; post-ischemic kidneys, vehicle 58.7±2.9, P=0.035", "value": "50.6±2.1", "unit": "%"}, {"measurement": "CD69+ among kidney DN T cells", "setting": "kidney T cells [1]; post-ischemic kidneys, vehicle 60.6±2.5, P=0.005", "value": "72.1±2.5", "unit": "%"}, {"measurement": "Ki67+ among kidney CD8+ T cells", "setting": "kidney T cells [1]; post-ischemic kidneys, vehicle 61.2±4.2, P=0.043", "value": "48.4±4.1", "unit": "%"}, {"measurement": "CD44+ among kidney CD8+ T cells", "setting": "kidney T cells [1]; post-ischemic kidneys, vehicle 61.4±10.7, P=0.001", "value": "40.9±11.2", "unit": "%"}, {"measurement": "CD44+ among kidney CD4+ T cells", "setting": "kidney T cells [1]; post-ischemic kidneys, vehicle 67.5±1.7, P<0.001", "value": "56.3±1.9", "unit": "%"}, {"measurement": "Ki67+ among kidney DN T cells", "setting": "kidney T cells [1]; post-ischemic kidneys, vehicle 78.7±3.0, P=0.001", "value": "91.2±1.1", "unit": "%"}, {"measurement": "CD44+ among kidney DN T cells", "setting": "kidney T cells [1]; post-ischemic kidneys, vehicle 94.4±2.4, P=0.038", "value": "96.4±1.2", "unit": "%"}, {"measurement": "levels of the other metabolic enzymes in kidney T cells", "setting": "kidney T cells [1]; [3]", "value": "comparable between groups"}, {"measurement": "proportions of CD4+, CD8+, DN T cells among total T cells and Tregs among CD4+ T cells", "setting": "kidney T cells [1]; [3]", "value": "comparable between groups"}, {"measurement": "pS6 and HKII expression in kidney T cells", "setting": "kidney T cells [1]; post-ischemic kidneys, vs vehicle-treated mice", "value": "enhanced"}, {"measurement": "number of total T cells in post-ischemic kidneys", "setting": "kidney T cells [1]; vs vehicle", "value": "reduced"}, {"measurement": "CD69 expression in CD4+, CD8+, and DN T cells", "setting": "kidney T cells [2]; cisplatin AKI, FIG. 17C", "value": "reduced"}, {"measurement": "CD69+ among kidney CD8+ T cells", "setting": "kidney T cells [2]; [4]", "value": "9.8±1.5", "unit": "%"}, {"measurement": "Ki67+ among kidney CD8+ T cells", "setting": "kidney T cells [2]; [4]", "value": "9.8±1.5", "unit": "%"}, {"measurement": "Ki67+ among kidney CD4+ T cells", "setting": "kidney T cells [2]; post-cisplatin AKI kidneys, vehicle 37.0±2.9, P=0.003", "value": "25.4±1.8"}, {"measurement": "CD69+ among kidney CD4+ T cells", "setting": "kidney T cells [2]; post-cisplatin AKI kidneys, vehicle 37.0±2.9, P=0.014", "value": "25.4±1.8", "unit": "%"}, {"measurement": "CD62L+ among kidney CD4+ T cells", "setting": "kidney T cells [2]; post-cisplatin AKI kidneys, vehicle 37.5±3.2", "value": "52.5±3.0", "unit": "%"}, {"measurement": "CD44+ among kidney CD8+ T cells", "setting": "kidney T cells [2]; post-cisplatin AKI kidneys, vehicle 43.3±3.3, P<0.001", "value": "26.4±2.3", "unit": "%"}, {"measurement": "CD62L+ among kidney CD8+ T cells", "setting": "kidney T cells [2]; post-cisplatin AKI kidneys, vehicle 48.9±4.2, P<0.001", "value": "76.0±2.3", "unit": "%"}, {"measurement": "CD44+ among kidney CD4+ T cells", "setting": "kidney T cells [2]; post-cisplatin AKI kidneys, vehicle 50.2±3.4, P=0.037", "value": "40.9±2.4", "unit": "%"}]}]}
